In ChEMBL document CHEMBL1155891, “Synthesis and antiviral evaluation of some new pyrazole and fused pyrazolopyrimidine derivatives” (Bioorg Med Chem, 2008):
Calls of active or inactive are those of the source. The rule behind the calls is not given here.

Key:
Hepatovirus A [1] = assay: Antiviral activity against HAV 20 ug/10^5 cells by plaque infectivity assay
Hepatovirus A [2] = assay: Antiviral activity against HAV 10 ug/10^5 cells by plaque infectivity assay; assay type: functional, organism-based
Human alphaherpesvirus 1 [3] = assay: Antiviral activity against HSV1 20 ug/10^5 cells by plaque infectivity assay; assay type: functional, organism-based
Human alphaherpesvirus 1 [4] = assay: Antiviral activity against HSV1 10 ug/10^5 cells by plaque infectivity assay; assay type: functional, organism-based

Structure (SMILES): CCOC(=O)c1cnn(-c2ncnc3sc4c(c23)-c2ccccc2CC4)c1N
- Activity (Hepatovirus A [1]): Active

Structure (SMILES): N#Cc1cnn(-c2ncnc3sc4c(c23)-c2ccccc2CC4)c1N
- Activity (Hepatovirus A [1]): Active
- Activity (Hepatovirus A [2]): Active

Structure (SMILES): N#Cc1cnn(-c2ncnc3sc4c(c23)-c2ccccc2CC4)c1NC(=S)NC(=O)c1ccccc1
- Activity (Human alphaherpesvirus 1 [3]): Active
- Activity (Human alphaherpesvirus 1 [4]): Active
- Activity (Hepatovirus A [2]): Active

Structure (SMILES): COCCSc1ncnc2c1cnn2-c1ncnc2sc3c(c12)-c1ccccc1CC3
- Activity (Human alphaherpesvirus 1 [3]): Active
- Activity (Human alphaherpesvirus 1 [4]): Active

Structure (SMILES): COC(CSc1ncnc2c1cnn2-c1ncnc2sc3c(c12)-c1ccccc1CC3)OC
- Activity (Human alphaherpesvirus 1 [4]): Active
